Results: patent US20040092515A1, “Diaminoquinazoline esters for use as dihydrofolate reductase inhibitors” (priority 2001, published 2004)

| SMILES | melting point |
| --- | --- |
| COc1cc(C(=O)OCc2ccc3nc(N)nc(N)c3c2)cc(OC)c1OC | 223 to 227 °C |
| COc1ccc(OC)c(C(=O)OCc2ccc3nc(N)nc(N)c3c2)c1 | 195 to 197 °C |
